Experimental data taken from BindingDB's records for doi:10.1016/s0960-894x(98)00264-9 (Royal Danish School of Pharmacy, 1999).

Columns and labels:
[1] = Compound was evaluated for agonistic activity against mGluR4a alpha metabotropic receptor subtype in rat cortical slice model
[2] = Compound was evaluated for agonistic activity against mGluR2 alpha metabotropic receptor subtype in rat cortical slice model

| Compound | EC50 [1] | EC50 [2] |
| --- | --- | --- |
| O=C(O)C(NCc1ccccc1)c1cc(=O)[nH]o1 (stereo unspecified) [Benzylamino-(3-hydroxy-isoxazol-5-yl)-acetic acid] | > 1000 µM | > 1000 µM |
| CCNC(C(=O)O)c1cc(=O)[nH]o1 (stereo unspecified) [Ethylamino-(3-hydroxy-isoxazol-5-yl)-acetic acid] | > 1000 µM | > 1000 µM |
| CNC(C(=O)O)c1cc(=O)[nH]o1 (stereo unspecified) [(3-Hydroxy-isoxazol-5-yl)-methylamino-acetic acid] | > 1000 µM | > 1000 µM |
